Data set [1] concerns methicillin-sensitive Staphylococcus aureus (MSSA, ATCC 12600). Briefly: Minimum inhibitory concentration (MIC) test, CLSI M07-A10. In kind it is cell-based. The procedure: (§1) Antibacterial activity of sodium channel blockers (lidocaine, bupivacaine, tetracaine, procaine, prilocaine), NSAIDs (ketorolac and tolfenamic acid), antioxidants (resveratrol and curcumin), and antibiotics (gentamicin and vancomycin) was performed against methicillin-sensitive Staphylococcus aureus (MSSA, ATCC 12600). The bacterial susceptibility tests were conducted as outlined in the Clinical and Laboratory Standard Institute (CLSI) protocol M07-A10. Bacterial suspensions with a concentration of approximately 5*10^5 CFU/ml were prepared in Lysogeny broth and mixed with the tested drugs. […] Minimum bactericidal concentration (MBC) was determined as the minimum concentration of the tested drug needed to kill 99.9% of bacteria (or 3−log 10 reduction). […] The MBC was measured for lidocaine, bupivacaine, ketorolac, and gentamicin.

A short description of data set [2]: Drug solubility limit in growth medium. In kind it is physicochemical. As to conditions: plasma or biological fluid.
Data set [3] deals with methicillin-sensitive S. aureus. As to conditions: cited from earlier work.
Data set [4] relates to Bacillus cereus, MSSA, MRSA, Escherichia coli, Klebsiella pneumoniae, Pseudomonas aeruginosa, Enterobacter aerogenes, and Salmonella Choleraesuis. As to conditions: eight listed bacteria; cited from earlier work.
The conditions of data set [5]: systemic administration; cited from earlier work.
Data set [6] relates to methicillin-sensitive Staphylococcus aureus (MSSA, ATCC 12600). Briefly: Minimum bactericidal concentration (MBC) test. As to conditions: MSSA ATCC 12600, kill 99.9% of bacteria. In kind it is cell-based. As for the experimental part:
as §1

The subject of another data set is MSSA (ATCC 14775). As to the kind of experiment: Time-kill experiments. In kind it is cell-based, Staphylococcus aureus. As to conditions: between 4 and 24 h. The procedure: Time-kill curves employing 3 time-points (0, 4, 24 hours) over the period of 24 hours were obtained for characterization of the antibacterial activity of selected combinations against MSSA (ATCC® 14775). Tested combinations of drugs were incubated with 5*10^5 CFU/ml of bacteria in Lysogeny broth at 37° C. At a given time-point, aliquots were collected, and bacterial concentrations were determined using the spread-plate method. The minimum accurately countable concentration was 10^2 CFU/ml. […] The increase of bacterial concentration represented antagonism.

Setting [7] is: Staphylococcus aureus, MSSA ATCC 12600, Lysogeny broth, 24-hour incubation at 37° C., read-out: MIC.

Converted amounts (≈) assume the structure as drawn. Where two headings read alike, the source gives them in different places.

The source of these data is patent US20220143053A1, “ANTI-MICROBIAL METHODS AND MATERIALS” (priority 2019, published 2022).

Usually MIC stands for the least concentration at which growth counts as inhibited. For orientation: solubility means the concentration that dissolves in the medium under given conditions. The term MBC denotes the smallest concentration meeting the test's criterion for killing.

Regarding `CCCCN1CCCCC1C(=O)Nc1c(C)cccc1C` (stereo not shown) [Bupivacaine], the MIC in data set [1] (setting [7]) is 1880 µg/mL (≈ 6.5 mM). For the same compound, in data set [2], the solubility is ~15 mg/mL (≈ 52 mM). Also, in data set [3], the antibacterial effects entry is on record as “measurable antibacterial effects”. As to `COc1cc(/C=C/C(=O)CC(=O)/C=C/c2ccc(O)c(OC)c2)ccc1O` [Curcumin], the MIC in data set [1] (setting [7]) was 188 µg/mL (≈ 0.509 mM).

Take `CC(C)Cc1ccc(C(C)C(=O)O)cc1` (stereo not shown) [Ibuprofen]: the antibacterial activity result in data set [4] is “measurable antibacterial activity”. With `O=C(c1ccccc1)c1ccc2n1CCC2C(=O)O` (stereo not shown) [Ketorolac], the MIC in data set [1] (setting [7]) was determined as 3120 µg/mL (≈ 12.2 mM). Moreover, the solubility in data set [2] is ~18 mg/mL (≈ 70.5 mM). With `CCN(CC)CC(=O)Nc1c(C)cccc1C` [Lidocaine], in data set [1] (setting [7]), the MIC was 15600 µg/mL (≈ 66.7 mM). Besides, in data set [3], the antibacterial effects result was “measurable antibacterial effects”. With `CCCNC(C)C(=O)Nc1ccccc1C` (stereo not shown) [Prilocaine], the MIC in data set [1] (setting [7]) came out at 25000 µg/mL (≈ 113 mM). On the same count and under the same terms, in the case of `CCN(CC)CCOC(=O)c1ccc(N)cc1` [Procaine] it was 100000 µg/mL (≈ 423 mM).

For the compound `Oc1ccc(C=Cc2cc(O)cc(O)c2)cc1` [Resveratrol], the MIC in data set [1] (setting [7]) was 125 µg/mL (≈ 0.548 mM). Still for that read-out and setting: in the case of `CCCCNc1ccc(C(=O)OCCN(C)C)cc1` [Tetracaine] it was 938 µg/mL (≈ 3.55 mM).

For `Cc1c(Cl)cccc1Nc1ccccc1C(=O)O` [Tolfenamic Acid], the MIC in data set [1] (setting [7]) is 250 µg/mL (≈ 0.955 mM). On to `CN[C@H](CC(C)C)C(=O)N[C@H]1C(=O)N[C@@H](CC(N)=O)C(=O)N[C@H]2C(=O)N[C@H]3C(=O)N[C@H](C(=O)N[C@H](C(=O)O)c4cc(O)cc(O)c4-c4cc3ccc4O)[C@H](O)c3ccc(c(Cl)c3)Oc3cc2cc(c3O[C@@H]2O[C@H](CO)[C@@H](O)[C@H](O)[C@H]2O[C@H]2C[C@](C)(N)[C@H](O)[C@H](C)O2)Oc2ccc(cc2Cl)[C@H]1O` [Vancomycin], for which, in data set [1] (Staphylococcus aureus, 24 h), the MIC was determined as 0.625 µg/mL (≈ 0.000431 mM). Further, the “concentration in the bone relative to that in the serum” value in data set [5] was ~20%. Consider `CC(=O)Oc1ccccc1C(=O)O` [aspirin], for which the antibacterial activity entry in data set [4] is “measurable antibacterial activity”. As for `O=C(O)Cc1ccccc1Nc1c(Cl)cccc1Cl` [diclofenac], the antibacterial activity result in data set [4] was “measurable antibacterial activity”.

`Cc1cccc(Nc2ccccc2C(=O)O)c1C` [mefenamic acid]: the antibacterial activity result in data set [4] is recorded as “measurable antibacterial activity”.

Take Gentamicin: the MIC in data set [1] (MSSA ATCC 12600, Lysogeny broth, 24-hour incubation at 37° C.) turned out to be 4 µg/mL. The compound also showed an MBC in data set [6] of 2 µg/mL. Moreover, the “regrowth in time-kill curves” value with MSSA (ATCC 14775) was “regrowth phase”.
